Results as given in article PMC3742238, “Characterization of the Interaction between Eupatorin and Bovine Serum Albumin by Spectroscopic and Molecular Modeling Methods” (International Journal of Molecular Sciences, 2013).

Biological target: T1, bovine serum albumin (BSA) (Bos taurus, UniProt P02769)
T1 construct: gene ALB; BSA fraction V (Sigma), 583 amino acid residues
Experiment: intrinsic fluorescence quenching titration (static; Kb at […] K, pH […], n = […]), supported by UV-vis, CD and FRET
Type: binding
Details: read-out: Kb (10^6 M^-1) (converted)

T1 sequence (P02769 25-607): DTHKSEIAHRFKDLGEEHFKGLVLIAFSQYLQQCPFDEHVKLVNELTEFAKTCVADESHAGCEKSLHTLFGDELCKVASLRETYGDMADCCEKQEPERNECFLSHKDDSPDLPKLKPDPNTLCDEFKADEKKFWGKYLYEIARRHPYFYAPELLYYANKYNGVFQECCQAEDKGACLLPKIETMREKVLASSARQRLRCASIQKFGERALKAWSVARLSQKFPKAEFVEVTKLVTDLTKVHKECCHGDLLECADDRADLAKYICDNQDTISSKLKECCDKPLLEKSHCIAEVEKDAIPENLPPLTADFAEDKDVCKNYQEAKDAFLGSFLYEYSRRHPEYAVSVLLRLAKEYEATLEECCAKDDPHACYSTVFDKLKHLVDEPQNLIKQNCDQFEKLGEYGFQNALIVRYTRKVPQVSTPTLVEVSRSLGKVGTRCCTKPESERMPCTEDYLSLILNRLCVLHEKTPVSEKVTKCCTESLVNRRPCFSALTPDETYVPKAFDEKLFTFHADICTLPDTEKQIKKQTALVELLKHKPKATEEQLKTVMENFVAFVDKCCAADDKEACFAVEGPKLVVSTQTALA

- Kd: 813 nM
SMILES: COc1ccc(-c2cc(=O)c3c(O)c(OC)c(OC)cc3o2)cc1O [eupatorin]
